PubChem BioAssay AID1919009 (Molecular Pharmacology Branch, DTP, NCI, 2023)
Where “and” joins values, the source holds several entries; their conditions need not be identical. Equal entries are not always repeated.

System: K24384-001-R-PDC complex spheroid growth
Assay: Anticancer human tumor K24384-001-R-PDC patient-derived pancreatic adenocarcinoma cell line growth inhibition [AhR]
Conditions: for viability, T/C: stronger effect = lower value
Excerpt: Multicellular complex tumor spheroid response to aryl hydrocarbon receptor antagonists in combination with a variety of drugs and investigational agents in selected tumor cell lines
The current study was undertaken to assess response to aryl hydrocarbon receptor antagonists in combination with standard-of-care drugs and investigational agents in solid tumor complex spheroid models. Complex spheroids include a stromal component modeled by human endothelial cells (HUVEC) and fibroblasts modeled by human mesenchymal stem cells (MSCs). The concentration ranges selected for each drug and investigational agent were based upon clinically achievable concentrations if the clinical Cmax of the agent was known.
Compounds. The drugs and investigational agents: BAY 2416964 (NSC825713), GNF351 (NSC835774), CH-223191 (NSC835775), CPI-455 (NSC825282), aza-TdCyd (NSC777586), decitabine (NSC127716), belinostat (NSC758774), entinostat (NSC756642), pevonedistat (NSC761192), tazemetostat (NSC777109), talazoparib (NSC765396), olaparib (NSC753686), selinexor (NSC780203), nedisertib (M3814, NSC802822), bortezomib (NSC756655), venetoclax (NSC766270), doxorubicin (NSC123127), elimusertib (BAY189344, NSC800525), ceralasertib (AZD6738, NSC777638), TAK-243 (NSC785004), alisertib (NSC759677), etoposide (NSC141540), topotecan (NSC609699), eribulin (NSC707389), gemcitabine (NSC613327), carboplatin (NSC241240), cisplatin (NSC119875), and SN-38 (NSC673596) were obtained from the National Cancer Institute (NCI) Developmental Therapeutics Program Chemical Repository (32). The FDA-approved anticancer drug set is available from the Developmental Therapeutics Program at https://dtp.cancer.gov/organization/dscb/obtaining/available plates.htm. […] The stock solutions were prepared in dimethyl sulfoxide (DMSO, Sigma-Aldrich, St. Louis, MO, cat. D2650), except for the platinum compounds which were prepared in saline (Quality Biological, Gaithersburg, MD, cat. 114-055-101), at 800-fold the tested concentration and stored at -70 degrees C prior to their use. All drugs and investigational agents were tested over a range starting from a high concentration at or near the clinical Cmax and decreasing in half-log increments. If the clinical Cmax for an agent had not been determined, the highest concentration tested was 10 microM (Table 1).
Cell Culture. All cells were maintained in an incubator at 37 degrees C and 5% CO2 with 95% humidity. The PDC lines were cultured according to standard operating procedures established by the NCI PDMR (https://pdmr.cancer.gov). Briefly, all PDCs were thawed and cultured in Matrigel-coated flasks prepared with a working solution of 1X Ham's F-12 nutrient mix, without supplementation (Invitrogen, Waltham, MA, cat. 11765054), 100 U/mL penicillin-streptomycin (Invitrogen, cat. 15140122), and 2.5% Matrigel (Corning Inc., Corning, NY, cat. 354248) for the first three passages. All PDCs were cultured in complete DMEM/F-12 media containing advanced DMEM/F-12 (Invitrogen, cat. 12634028), 4.9% defined fetal bovine serum, heat inactivated (HyClone Laboratories Inc., Logan, UT, cat. SH30070.03HI), 389 ng/mL hydrocortisone (Sigma-Aldrich, cat. H4001), 9.7 ng/mL human EGF recombinant protein (Invitrogen, cat. PHG0313), 23.4 microg/mL adenine (Sigma-Aldrich, cat. A2786), 97.3 U/mL penicillin-streptomycin (Invitrogen, cat. 15140122), 1.9 mM L-glutamine (Invitrogen, cat. 25030081), and 9.7 microM Y-27632 dihydrochloride (Tocris Bioscience, Bristol, United Kingdom, cat. 1254). The PDCs were cultured in complete DMEM/F12 media without 10 microM Y-27632 dihydrochloride for at least two passages prior to the screen. The established cell lines NCI-H1341 and […] were cultured in DMEM/F-12, HEPES (Invitrogen, cat. 11330032), 5% defined fetal bovine serum (HyClone Laboratories Inc., cat. SH30070.03), ITS premix universal culture supplement [insulin (5 microg/mL), transferrin (5 microg/mL), and selenious acid (5 ng/mL)] […]
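Throughout, for viability, T/C: percent of DMSO vehicle-treated spheroid viability set as 100%.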

**Q.** What does the source list for COc1cccc2c1C(=O)c1c(O)c3c(c(O)c1C2=O)CC(O)(C(=O)CO)CC3OC1CC(N)C(O)C(C)O1 (stereo not drawn)?
**A.** viability, T/C (compound 0.0316 µM): 55.9% and 53.8% and 60.3%; viability, T/C (compound 0.1 µM): 42.6% and 43.3% and 55.6%; viability, T/C (compound 0.316 µM): 27.5% and 27% and 27.3%; viability, T/C (compound 1 µM): 7.51% and 8.21% and 8.1%; viability, T/C (compound 3.16 µM): 2.73% and 2.56% and 3.17%; viability, T/C (compound 10 µM): 7.73% and 8.61% and 11.3%; IC50 (curve of compound): 0.0555 µM and 0.0483 µM and 0.127 µM

**Q.** How did the IC50 (compound alone, run of 06/14/2022) turn out when Cc1ccccc1N=Nc1ccc(NC(=O)c2ccnn2C)c(C)c1 was run?
**A.** > 10 µM

**Q.** How did the viability, T/C (compound 10 µM) turn out when Cc1cncc(-c2nc(NCCc3c[nH]c4ccccc34)c3ncn(C(C)C)c3n2)c1 was run?
**A.** 10.4% [middle of 20 runs]

**Q.** What about the IC50 (compound alone, run of 06/06/2022) of the same molecule?
**A.** 5.54 µM [middle of 23 runs]

**Q.** What does the source list for Cn1ncnc1C1c2n[nH]c(=O)c3cc(F)cc(c23)NC1c1ccc(F)cc1 (stereo not drawn)?
**A.** viability, T/C (compound 0.000316 µM): 104% and 93.7% and 94.2%; viability, T/C (compound 0.001 µM): 117% and 105% and 102%; viability, T/C (compound 0.00316 µM): 93.1% and 104% (2×); viability, T/C (compound 0.01 µM): 91.7% and 102% and 105%; viability, T/C (compound 0.0316 µM): 97% and 97.8% and 98.7%; viability, T/C (compound 0.1 µM): 82% and 81.5% and 75.4%; IC50 (curve of compound): > 0.1 µM

**Q.** For NS(=O)(=O)OCC1CC(n2ccc3c(NC4CCc5ccccc54)ncnc32)CC1O (stereo not drawn), which viability, T/C (compound 0.0316 µM) is on record?
**A.** 102% and 101% and 100%

**Q.** And the viability, T/C (compound 0.1 µM)?
**A.** 119% and 96.5% and 107%

**Q.** What about the viability, T/C (compound 0.316 µM) of the same molecule?
**A.** 107% (2×) and 102%

**Q.** And the viability, T/C (compound 1 µM)?
**A.** 95.7% and 59% and 75.3%

**Q.** What about the viability, T/C (compound 3.16 µM) of the same molecule?
**A.** 40.4% and 32.9% and 49.2%

**Q.** What about the viability, T/C (compound 10 µM) of the same molecule?
**A.** 27.5% and 21.6% and 24.1%

**Q.** What about the IC50 (curve of compound) of the same molecule?
**A.** 2.59 µM and 1.42 µM and 2.77 µM

**Q.** With Nc1ccccc1NC(=O)c1ccc(CNC(=O)OCc2cccnc2)cc1 as the molecule, how does the viability, T/C (compound 0.0316 µM) read?
**A.** 94% and 112% and 106%

**Q.** And the viability, T/C (compound 0.1 µM)?
**A.** 98% and 108% and 107%

**Q.** And the viability, T/C (compound 0.316 µM)?
**A.** 85% and 93.4% and 96.5%

**Q.** And the viability, T/C (compound 1 µM)?
**A.** 78.2% and 67.5% and 60.9%

**Q.** And the viability, T/C (compound 3.16 µM)?
**A.** 43.8% and 43.9% and 45.6%

**Q.** And the viability, T/C (compound 10 µM)?
**A.** 8.72% and 6.99% and 9.95%

**Q.** And the IC50 (curve of compound)?
**A.** 2.59 µM and 2.28 µM and 2.14 µM

**Q.** For Nc1ccn(C2OC(CO)C(O)C2(F)F)c(=O)n1 (stereo not drawn), which viability, T/C (compound 0.0316 µM) is on record?
**A.** 75.8% and 84.6% and 71%

**Q.** What about the viability, T/C (compound 0.1 µM) of the same molecule?
**A.** 67.7% and 76.7% and 59.5%

**Q.** And the viability, T/C (compound 0.316 µM)?
**A.** 50.6% and 52.6% and 41.6%

**Q.** What about the viability, T/C (compound 1 µM) of the same molecule?
**A.** 42.8% and 39.7% and 32.8%

**Q.** And the viability, T/C (compound 3.16 µM)?
**A.** 37.3% and 40.7% and 22.7%

**Q.** What about the viability, T/C (compound 10 µM) of the same molecule?
**A.** 28.5% and 31.3% and 20.2%

**Q.** And the IC50 (curve of compound)?
**A.** 0.458 µM and 0.419 µM and 0.191 µM

**Q.** Nc1ncn(C2CC(O)C(CO)O2)c(=O)n1 (stereo not drawn) was tested. Which viability, T/C (compound 0.00316 µM) did it give?
**A.** 111% and 99.4% and 104%

**Q.** And the viability, T/C (compound 0.01 µM)?
**A.** 94.1% and 108% and 112%

**Q.** And the viability, T/C (compound 0.0316 µM)?
**A.** 108% and 95.7% and 101%

**Q.** And the viability, T/C (compound 0.1 µM)?
**A.** 95.2% and 101% and 82.9%

**Q.** And the viability, T/C (compound 0.316 µM)?
**A.** 87.2% and 88.8% and 84.9%

**Q.** What about the viability, T/C (compound 1 µM) of the same molecule?
**A.** 79.4% and 79.5% and 76.8%

**Q.** What about the IC50 (curve of compound) of the same molecule?
**A.** > 1 µM

**Q.** For Nc1ncn(C2CC(O)C(CO)S2)c(=O)n1 (stereo not drawn), which viability, T/C (compound 0.000949 µM) is on record?
**A.** 110% and 102% and 115%

**Q.** And the viability, T/C (compound 0.003 µM)?
**A.** 104% and 111% and 121%

**Q.** What about the viability, T/C (compound 0.00949 µM) of the same molecule?
**A.** 105% and 93% and 90.2%

**Q.** What about the viability, T/C (compound 0.03 µM) of the same molecule?
**A.** 98% and 87.8% and 92.5%

**Q.** What about the viability, T/C (compound 0.0949 µM) of the same molecule?
**A.** 80.2% and 77.9% and 76.2%

**Q.** And the viability, T/C (compound 0.3 µM)?
**A.** 81.4% and 64.2% and 70.1%

**Q.** What about the IC50 (curve of compound) of the same molecule?
**A.** > 0.3 µM

**Q.** O=C(C=Cc1cccc(S(=O)(=O)Nc2ccccc2)c1)NO was tested. Which viability, T/C (compound 0.0316 µM) did it give?
**A.** 104% and 118% and 108%

**Q.** And the viability, T/C (compound 0.1 µM)?
**A.** 104% and 115% and 114%

**Q.** What about the viability, T/C (compound 0.316 µM) of the same molecule?
**A.** 96.2% and 116% and 99.6%

**Q.** And the viability, T/C (compound 1 µM)?
**A.** 78.5% and 87.3% and 81.8%

**Q.** What about the viability, T/C (compound 3.16 µM) of the same molecule?
**A.** 34.4% and 35.4% and 29.5%

**Q.** What about the viability, T/C (compound 10 µM) of the same molecule?
**A.** 8.12% and 8.37% and 2.97%

**Q.** And the IC50 (curve of compound)?
**A.** 2.1 µM and 2.28 µM and 2 µM

**Q.** For O=C(C=Cn1cnc(-c2cc(C(F)(F)F)cc(C(F)(F)F)c2)n1)NNc1cnccn1, which viability, T/C (compound 0.00949 µM) is on record?
**A.** 103% and 108% and 124%

**Q.** What about the viability, T/C (compound 0.03 µM) of the same molecule?
**A.** 102% and 118% and 111%

**Q.** What about the viability, T/C (compound 0.0949 µM) of the same molecule?
**A.** 83.7% and 73.7% and 79.4%

**Q.** What about the viability, T/C (compound 0.3 µM) of the same molecule?
**A.** 42.4% and 48.4% and 54.7%

**Q.** And the viability, T/C (compound 0.949 µM)?
**A.** 29.9% and 28.1% and 41.4%

**Q.** And the viability, T/C (compound 3 µM)?
**A.** 22.9% and 24.3% and 29.5%

**Q.** What about the IC50 (curve of compound) of the same molecule?
**A.** 0.246 µM and 0.245 µM and 0.422 µM

**Q.** What does the source list for O=C(c1cc(Cc2n[nH]c(=O)c3ccccc23)ccc1F)N1CCN(C(=O)C2CC2)CC1?
**A.** viability, T/C (compound 0.0316 µM): 104% and 103% and 116%; viability, T/C (compound 0.1 µM): 132% and 100% and 105%; viability, T/C (compound 0.316 µM): 105% and 95.4% and 115%; viability, T/C (compound 1 µM): 95.4% and 94.5% and 90.4%; viability, T/C (compound 3.16 µM): 88.2% and 96.2% and 90.5%; viability, T/C (compound 10 µM): 82.8% and 62.4% and 76%; IC50 (curve of compound): > 10 µM
